Laboratory results reported in patent publication US20220072014A1, “PHARMACEUTICAL COMPOSITION WHICH COMPRISES THE COMBINATION OF A SELECTIVE INHIBITOR OF CYCLOOXYGENASE 2 AND A CARBAMATE DERIVED FROM GUAIFENESIN FOR TREATING PAIN, INFLAMMATION AND MUSCULAR CONTRACTION” (priority 2018, published 2022).

Legend:
[1] = system: rats (lethality); experiment: preclinical toxicity (lethality) study after oral administration; type: in vivo, male Wistar rats
Text: In order to determine the possible antinociceptive and toxic effects of the combination, male Wistar rats [Crl:(WI)fBR] with a weight of 180-200 g were used. All experimental procedures complied with the recommendations of the Committee for Research and Ethical Issues of the International Association for the Study of Pain (Covino et al., 1980) and the Guidelines on Ethical Standards for Investigations of Experimental Pain in Animals (Zimmermann 1983). The number of experimental animals was kept to a minimum (6 animals per experimental point for antinociceptive effects and 10 animals per experimental point for adverse effects:lethality). The rats were kept in a room with alternating light/darkness cycles. For twelve hours before the antinociception experiments rats fasted but had free access to water. All experiments were performed during the light phase of the light/darkness cycles.
The lethal toxic effects after single administrations were determined in 3 post-treatment timepoints, 24, 48 and 72 hours, in order to determine the corresponding DRC (death).

[2] = system: gout arthritis induced by intra-articular uric acid; experiment: pain-induced functional impairment in the rat model (PIFIR model), uric acid-induced gout arthritis; type: in vivo, male Wistar rats
Description: All experiments were performed during the light phase of the light/darkness cycles.

[3] = oral route, cited from earlier work
[4] = weight gain of experimental animals; type: in vivo, rats; details: celecoxib doses used for the chronic treatment DRC, alone or combined
[5] = FDA prescribing information; cited from earlier work
[6] = system: arthrosis and rheumatoid arthritis (RA) patients; details: patients without concomitant ASA; cited from earlier work

Compound | dose causing lethality effects within 24 hours [1] | antinociceptive effect during the assessment period ([2]; methocarbamol 50 mg/Kg alone, oral, 4-hour assessment) | time to peak action ([3]; humans) [h] | time to reach active levels [3] [min] | dose at which the lethality DRC begins ([1]; 24 hours) [g/kg] | effect on normal weight gain [4] | estimated effective half-life [5] [h] | maximal effect (% FI) ([2]; 2.5 h after oral administration, celecoxib 1,000 mg/Kg alone or with methocarbamol 50 mg/Kg) [%] | effect four hours after being administered (% FI) ([2]; 4 h after oral administration, celecoxib 1,000 mg/Kg alone or with methocarbamol 50 mg/Kg) [%] | ED50 ([2]; Rattus norvegicus, po, read-out: ED50 (antinociceptive dose-response curve)) [mg/kg] | peak antinociceptive effectiveness (AUC of temporal course, global antinociceptive effect) ([2]; oral, acute administration, 4-hour assessment, most efficacious dose celecoxib 1,000 mg/Kg (combination with methocarbamol 50 mg/Kg)) | GI bleeding incidence [6]
COc1ccccc1OCC(O)COC(N)=O (stereo not drawn) [methocarbamol, 3-(2-methoxyphenoxy)-1,2-propanediol 1-carbamate] | 1,000 mg/Kg | did not produce any antinociceptive effect whatsoever | ≤ 2 | ≤ 30 | – | – | – | – | – | – | – | –
Cc1ccc(-c2cc(C(F)(F)F)nn2-c2ccc(S(N)(=O)=O)cc2)cc1 [celecoxib, 4-[5-(4-methylphenyl)-3-(trifluoromethyl)-1H-pyrazol-1-yl]benzenesulfonamide] | – | – | – | – | 17.8 | does not modify the normal weight gain | 8 to 12 | 63.6±9.9 | 62.5±7.0 | 51.1 | 191.9±27.2 area units (au) | lower GI bleeding incidence
